Key:
[1] = tested on: corneal neovascularization; experiment: Corneal neovascularization, genistein-loaded micelle (Experimental Example 13); type: in vivo, Albino Sprague Dawley male rats
[2] = tested on: vascular hyperpermeability due to diabetic retinopathy; experiment: Vascular hyperpermeability due to diabetic retinopathy, genistein-loaded micelle (Experimental Example 14); type: in vivo, Sprague Dawley (SD) male rats
Method: First, each rat was injected intraperitonially with 60 mg/kg of streptozotocin dissolved in 10 mM citrate buffer at pH 4.5 in order for diabetes to be induced. In three days after the injection of streptozotocin, the rat was determined to develop diabetes when its serum concentration of glucose was at least 300 mg/dL. In a week after the injection of streptozotocin, 10 μL of each sample solution was injected into the vitroeus body.

[3] = tested on: HUVEC (Human Umbilical Vein Endothelial Cell); experiment: HUVEC proliferation (MTT); type: cell-based
Method: An endothelial cell, HUVEC (Human Umbilical Vein Endothelial Cell) (innopharmascreen co. ltd., Korea) was incubated in a EGM®^2 culture medium (Lonza) and then 100 μL of the cell solution with a concentration of 2×10^4/ml was distributed per each well and incubated in a 5% CO2 cultivator at 37° C. for 16 hours. After 16 hours, the culture medium was replaced and seven types of samples were treated. Among the seven types of samples were the control group as treated only with a culture medium, and the groups treated with 50 μM, 100 μM, and 200 μM of genistein solutions and the solutions of the genistein-loaded hyaluronic acid-peptide conjugate of Example 1 comprising 50 μM, 100 μM, and 200 μM of genistein, respectively. 10 μL of each sample and 100 μL of the culture medium were mixed and treated. After the samples were treated, they were incubated in 5% CO2 incubator at 37° C. and the culture media with the samples being mixed therein […] once a day. After three days, the culture media were removed and the samples were treated with 110 μL of an MTT solution (Amresco Co. (Solon, Ohio)), and incubated in a cultivator at 37° C. for two hours and then 50 μL of DMSO was added thereto to measure a light absorbency at 540 nm. The light absorbance as measured was compared with the light absorbance of the control group and the degree of the cell growth was calculated.

[4] = tested on: corneal neovascularization; experiment: Corneal neovascularization after silver nitrate cauterization (Experimental Example 8); type: in vivo, Albino Sprague Dawley male rats; conditions: rat cornea, subconjunctival 20 μL; Avastin 10 mg/ml, peptide and conjugate […] peptide; NV control 90.8±5%
Method: All animal tests including this experiment were conducted in compliance with the guidelines of the Catholic University of Korea and the principles of laboratory animal care; NIH publication No. 85-23 revised in 1985.
The rat was put under anesthesia by an intra-peritoneal injection of a mixed solution of 20 mg/kg of ketamine hydrochloride and 2.5 mg/kg of xylazine hydrochloride. […] In 3 days after the cauterization, subconjunctival administration was conducted with 20 μL of each of 4 sample solutions (a normal control group, NV control (neovascularization control: a control group wherein angiogenesis was made to occur and no drug was treated thereon), a solution comprising Avastin (Roche) dissolved in PBS at a concentration of 10 mg/ml, a solution comprising anti-Flt1 peptide (GGNQWFI) (SEQ ID NO: 3) dissolved in PBS at a concentration of 2.5 mg/ml, and a solution comprising the hyaluronic acid-peptide conjugate with a lower peptide concentration obtained from Preparation Example 3 as dissolved in PBS at a concentration of 2.5 mg/ml based on the content of anti-Flt1 peptide). […] The obtained images were subjected to quantitative analysis with Image J program (Ver. 1.38, National Institute of Health, MD).

[5] = genistein as dispersed in water, 6.2 mg/ml
[6] = genistein as dissolved in DMSO, 6.2 mg/ml

O=c1c(-c2ccc(O)cc2)coc2cc(O)cc(O)c12 [genistein]
average ratio of the neovascular area [1, 5]: 68% | average ratio of the neovascular area [1, 6]: 38% | average intensity of the fluorescence of retina relative to normal group (1) [2, 5]: 2.38±0.20 | average intensity of the fluorescence of retina relative to normal group (1) [2, 6]: 2.00±0.16 | HUVEC growth inhibition, comparison of genistein alone with micelle ([3]; genistein alone at 200 uM versus genistein-loaded micelle at 50 uM): inferior to the results obtained from the group treated with the genistein-loaded micelle at its lowest concentration (50 uM) | HUVEC cell number relative to control group (100%) ([3]; genistein concentration 100 μm (so in the source), 3 days, MTT): 70.5±3.5%

Avastin: Avastin (Roche), positive control
average ratio of the neovascular area ([1]; rat cornea, samples in PBS: Avastin 10 mg/ml, conjugate and micelle 3.2 mg/ml peptide, control group 86%): 23% | average intensity of the fluorescence of retina relative to normal group (1) ([2]; normal = 1, negative control 2.54±0.20, Avastin 10 mg/ml, micelle 3.2 mg/ml peptide, four weeks after streptozotocin): 1.49±0.17 | average ratio of the neovascular area [4]: 35.4±6.6%

Reference: patent US8895069B2, “Drug delivery system using hyaluronic acid-peptide conjugate micelle” (Postech Academy-Industry Foundation, priority 2011, dated 2014)
